The text below walks through data of patent US12610948B2, “Choline chloride adjuvant for fatty acid based biopesticide” (Stratacor, Inc., priority 2020, dated 2026).

Series [1] relates to stable flies (Stomoxys calcitrans). In words: Laboratory Petri dish filter paper incapacitation test, stable flies. It is filed as in vivo. The note with it: 1 ml on 9 cm filter paper in Petri dish. From the text:
(§1) Mixed sex stable flies (Stomoxys calcitrans) were obtained as pupae from a colony at the University of Nebraska West Central Research and Extension Center, North Platte, Nebraska. Mixed sex horn flies (Haematobia irritans), sensitive and knockdown resistant (Kdr), were obtained as pupae from a colony at The Center for Animal Health and Food Safety, New Mexico State University, Las Cruces, New Mexico. Adult horn and stable flies were allowed to emerge in 1 cubic foot cages at approximately 80 degrees Fahrenheit and were maintained on citrated whole blood (Quad Five, Rygate, Montana). Mixed sex house flies (Musca domestica) were obtained as pupae from Carolina Biological, Charlotte, North Carolina Adults were allowed to emerge in 1 cubic foot cages at approximately 80 degrees Fahrenheit and were maintained on water and sugar cubes. Mixed sex German cockroaches (Blattella germanica) were obtained as adults from Carolina Biological. Prior to use, roaches were kept with the supplied food source in paper towels contained in 1 cubic foot cages. Flies were used 4-6 days post emergence.
(§2) An aqueous emulsion of the octanoic/decanoic acid mix (C8C10) was prepared by addition to an aqueous solution of the sodium salts of the fatty acids, prepared by mixing equal molar amounts of sodium hydroxide and fatty acid.

For series [2], the system named is Sensitive Horn Fly (Haematobia irritans). Kind of series: Laboratory Petri dish incapacitation test, sensitive horn flies. The note with it: C8C10 organic aqueous emulsion, sensitive strain. The class given is in vivo.
Description: as §1, §2

In series [3] the test system is Knockdown Resistant (Kdr) Horn Fly (Haematobia irritans). In words: Laboratory Petri dish incapacitation test, knockdown resistant (Kdr) horn flies. The class given is in vivo. The note with it: C8C10 organic aqueous emulsion, Kdr strain.
Description: as §1, §2

For series [4], the system named is house flies (Musca domestica). Kind of series: Laboratory Petri dish incapacitation test, house flies. The note with it: aqueous emulsion, N = 3-4. The class given is in vivo.
Description: as §1, §2

The subject of series [5] is German cockroaches (Blattella germanica). In words: Laboratory Petri dish incapacitation test, German cockroaches. The class given is in vivo. The note with it: aqueous emulsion, 6 roaches per dish.
Description: as §1, §2

The subject of series [6] is insect. The note with it: 1% choline chloride in distilled water. From the text:
However, several factors (e.g., volatility, skin penetration, odor, irritation of the skin, eyes, and respiratory passages, leaf wilt, incapacitation reversibility, etc.) inherent to fatty acids may limit their practical use for certain applications as a biopesticide, especially when used at a high dosage.

Series [7] concerns acetylcholine receptors. The note with it: scale where acetylcholine is 100; Keyl et al., 1957; cited from earlier work.
Series [8] is classed as in vitro ADME. From the text: The C8910 fatty acids are volatile (Reifenrath, 2015b), and 24-61% of the applied dose evaporated exponentially from clay formulation applied to skin. Skin penetration will also limit duration for dermal treatments (e.g., about 50-75% of the applied dose of octanoic and decanoic acid penetrated cattle skin from mineral oil). To provide finer control of these modes of loss, the development of longer lasting controlled-release formulations (clay nanotubes, disintegrating granules, and microcapsules) for use as premises spray and direct skin application for protecting cattle against biting flies and ticks was investigated (Reifenrath, 2015c), with none of the carriers showing an extended duration. Since that time, however, it has been shown that an aqueous dilution (to 1% C8910) of an emulsifiable concentrate could achieve a similar duration of effectiveness (2-3 days after a single treatment) as the 15% oil formulation. […] The limited duration of such a formulation can be overcome by more frequent application (e.g. walk-through sprayers).

On to `C[N+](C)(C)CCO.[Cl-]` [Choline Chloride, 1.0%, Choline chloride], for which the “% Incapacitation at 24 h (Mean +/− S.D., N = 3)” value in series [1] is reported as 4 +/− 3%; in series [5] it was 0 +/− 0%; in series [5] (listed as choline chloride), “no effect”. In series [2], the “% Incapacitation at 24 h (Mean +/− S.D., N = 3), Sensitive” value is on record as 0 +/− 0%. In addition, the “% Incapacitation at 24 h (Mean +/− S.D., N = 3), Kdr” value in series [3] is reported as 2 +/− 4%. Also, in series [4], the “% Incapacitation at 24 h (Mean +/− S.D.)” value is 0 +/− 0%. Besides, in series [6], the insecticidal effect entry is “little or no insecticidal effect”.

For `CCCC(=O)OCC[N+](C)(C)C` [Formulation C4], the relative potency in series [7] is listed as 100.

Turning to `CCCCC(=O)OCC[N+](C)(C)C` [Formulation C5], in series [7], the relative potency is given as 54.

As to `CCCCCC(=O)OCC[N+](C)(C)C` [Formulation C6], the relative potency in series [7] is 20.

Regarding `CCCCCCCCCC(=O)O` [decanoic acid], in series [8], the “applied dose penetrated cattle skin” value is on record as 50-75%.

For `CCCCCCCC(=O)O` [octanoic acid], in series [8], the “applied dose penetrated cattle skin” value is 50-75%.
